1 molecule from ChEMBL document CHEMBL5034001 (J Med Chem, 2021) can be followed below.

Calls of active or inactive are those of the source. The calls are words filed in the database; no cut-off is given here.

Broadly, the IC50 is the concentration needed to halve the response being measured. Usually bioavailability stands for dose-corrected exposure relative to a reference, in per cent. High values mean good availability, low ones poor availability.

Data set [1] concerns the target Protein-tyrosine kinase 2-beta (Homo sapiens) (UniProt Q14289). Nature of the data set: Induction of PYK2 degradation in human SR cells at 1 nM after 16 hrs by Western blot analysis. Type of data set: cell-based.
Data set [2] deals with A549. Nature of the data set: Down regulation of FAK in human A549 cells at 1 to 1000 nM after 16 hrs by Western blot analysis. Type of data set: functional, cell-based. Particulars: dose 1-1000 nM. For orientation: Immunoblotting shows a protein as a band on a membrane.
Data set [3] deals with SR. Nature of the data set: Down regulation of FER in human SR cells at 0.1 to 1000 nM after 16 hrs by Western blot analysis. Particulars: dose 0.1-1000 nM. Type of data set: functional, cell-based.
Data set [4] relates to Receptor-type tyrosine-protein kinase FLT3 (Homo sapiens), P36888 [UNDEFINED MUTATION]. Description: Binding affinity to human partial length FLT3 ITD/F691L double mutant expressed in bacterial expression system assessed as residual binding level at 100 nM by Kinomescan method relative to control.
Data set [5] has as its system SR. Nature of the data set: Down regulation of PYK2 in human SR cells at 0.1 to 1000 nM after 16 hrs by Western blot analysis. Particulars: dose 0.1-1000 nM. Type of data set: functional, cell-based.
The test system of data set [6] is SR. Description: Antiproliferative activity against human SR cells assessed as inhibition of cell growth incubated for 72 hrs by CCK8 assay. Type of data set: functional, cell-based.
Data set [7] addresses T1, ALK tyrosine kinase receptor (Homo sapiens, UniProt Q9UM73). Description: Induction of ALK degradation in human SR cells at 10 uM after 16 hrs by Western blot analysis. Type of data set: cell-based.
Target sequence in this assay (Q9UM73 19-1620 limits assumed): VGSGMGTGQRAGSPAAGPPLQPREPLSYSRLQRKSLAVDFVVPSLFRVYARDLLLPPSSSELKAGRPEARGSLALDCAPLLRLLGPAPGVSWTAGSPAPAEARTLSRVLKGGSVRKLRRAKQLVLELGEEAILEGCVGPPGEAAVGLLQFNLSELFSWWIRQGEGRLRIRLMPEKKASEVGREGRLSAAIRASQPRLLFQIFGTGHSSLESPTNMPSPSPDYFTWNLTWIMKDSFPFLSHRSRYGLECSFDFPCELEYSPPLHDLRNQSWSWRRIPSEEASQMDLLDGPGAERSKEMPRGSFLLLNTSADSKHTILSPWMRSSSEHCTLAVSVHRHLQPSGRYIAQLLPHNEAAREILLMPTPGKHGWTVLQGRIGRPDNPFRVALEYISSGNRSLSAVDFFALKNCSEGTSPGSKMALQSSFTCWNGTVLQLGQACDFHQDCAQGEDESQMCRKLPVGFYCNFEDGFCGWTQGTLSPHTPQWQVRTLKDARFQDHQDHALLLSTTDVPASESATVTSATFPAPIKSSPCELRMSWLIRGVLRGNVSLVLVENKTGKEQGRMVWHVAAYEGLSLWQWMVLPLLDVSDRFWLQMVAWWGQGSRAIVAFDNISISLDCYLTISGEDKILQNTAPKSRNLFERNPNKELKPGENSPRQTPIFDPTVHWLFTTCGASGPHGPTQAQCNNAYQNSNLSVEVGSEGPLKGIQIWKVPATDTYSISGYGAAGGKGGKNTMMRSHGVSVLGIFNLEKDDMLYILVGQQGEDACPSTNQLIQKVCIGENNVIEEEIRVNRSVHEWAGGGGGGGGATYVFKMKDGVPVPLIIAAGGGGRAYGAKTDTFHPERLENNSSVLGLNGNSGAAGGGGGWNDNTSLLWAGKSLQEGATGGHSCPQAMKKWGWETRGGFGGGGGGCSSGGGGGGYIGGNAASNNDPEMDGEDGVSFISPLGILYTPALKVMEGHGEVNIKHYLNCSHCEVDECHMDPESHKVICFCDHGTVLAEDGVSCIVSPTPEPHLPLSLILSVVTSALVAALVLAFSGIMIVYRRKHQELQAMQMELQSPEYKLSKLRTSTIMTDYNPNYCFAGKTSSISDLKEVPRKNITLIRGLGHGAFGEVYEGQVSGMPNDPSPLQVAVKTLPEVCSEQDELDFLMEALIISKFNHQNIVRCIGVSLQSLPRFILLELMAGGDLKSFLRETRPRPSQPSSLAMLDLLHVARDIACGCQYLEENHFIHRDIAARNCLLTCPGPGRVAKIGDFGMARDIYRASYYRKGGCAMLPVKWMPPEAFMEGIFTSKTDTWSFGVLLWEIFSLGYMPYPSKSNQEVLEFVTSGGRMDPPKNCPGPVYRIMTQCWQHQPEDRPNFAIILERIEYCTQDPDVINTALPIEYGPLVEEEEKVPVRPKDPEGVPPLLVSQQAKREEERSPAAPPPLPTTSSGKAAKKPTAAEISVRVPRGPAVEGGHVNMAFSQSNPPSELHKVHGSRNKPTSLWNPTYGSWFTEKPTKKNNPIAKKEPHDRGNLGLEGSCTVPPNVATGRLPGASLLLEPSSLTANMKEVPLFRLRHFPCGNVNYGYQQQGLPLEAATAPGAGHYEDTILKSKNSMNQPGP
Data set [8] can be described thus: Toxicity in NU/NU mouse at 100 mg/kg. Type of data set: organism-based. Conditions: in vivo.
Data set [9] can be described thus: Oral bioavailability in […] at 10 mg/kg measured upto 24 hrs. Type of data set: ADME, organism-based. Particulars: in vivo.
Data set [10] addresses Protein-tyrosine kinase 2-beta (Homo sapiens) (UniProt Q14289). Description: Induction of PYK2 degradation in human MDA-MB-231 cells at 10 nM after 1 to 2 hrs by Western blot analysis. Type of data set: cell-based. Conditions: time 1-2 hrs.
Data set [11] deals with Receptor-type tyrosine-protein kinase FLT3 (Homo sapiens), P36888 [K663Q]. Nature of the data set: Binding affinity to human partial length FLT3 K663Q mutant (V592 to Y969 residues) expressed in bacterial expression system assessed as residual binding level at 100 nM by Kinomescan method relative to control.
For data set [12], the target named is Leucine-rich repeat serine/threonine-protein kinase 2 (Homo sapiens) (UniProt Q5S007). Nature of the data set: Binding affinity to wild-type human partial length LRRK2 (H970 to E2527 residues) expressed in mammalian expression system assessed as residual binding level at 100 nM by Kinomescan method relative to control.
For data set [13], the target named is Focal adhesion kinase 1 (Homo sapiens) (UniProt Q05397). Description: Induction of FAK degradation in human A549 cells at 1 nM after 16 hrs by Western blot analysis. Type of data set: cell-based.
Data set [14] concerns the target Protein-tyrosine kinase 2-beta (Homo sapiens) (UniProt Q14289). Nature of the data set: Induction of PYK2 degradation in human MDA-MB-231 cells at 10 nM treated for 16 hrs followed by compound washout and measured after 48 hrs by Western blot analysis. Type of data set: cell-based.
The subject of data set [15] is Epidermal growth factor receptor (Homo sapiens), P00533 [L858R,T790M]. Nature of the data set: Binding affinity to human partial length EGFR L858R/T790M double mutant (R669 to V1011 residues) expressed in mammalian expression system assessed as residual binding level at 100 nM by Kinomescan method relative to control.
Data set [16] concerns the target Serine/threonine-protein kinase SBK1 (Homo sapiens) (UniProt Q52WX2). Description: Binding affinity to wild-type human partial length SBK1 (P23 to P348 residues) expressed in mammalian expression system assessed as residual binding level at 100 nM by Kinomescan method relative to control.
The test system of data set [17] is Epidermal growth factor receptor (Homo sapiens), P00533 [T790M]. Nature of the data set: Binding affinity to human partial length EGFR T790M mutant (R669 to G1022 residues) expressed in mammalian expression system assessed as residual binding level at 100 nM by Kinomescan method relative to control.
Data set [18] deals with T1, ALK tyrosine kinase receptor. Description: Binding affinity to ALK (unknown origin).
The subject of data set [19] is Calu-1. Nature of the data set: Inhibition of cell migration in human Calu-1 cells at 100 nM after 12 to 24 hrs by wound healing assay. Type of data set: functional, cell-based. Conditions: time lower […], time upper 24.0 hrs.
The target in data set [20] is Protein-tyrosine kinase 2-beta (Homo sapiens) (UniProt Q14289). Description: Binding affinity to wild-type human full length PYK2 (M1 to E967 residues) expressed in bacterial expression system assessed as residual binding level at 100 nM by Kinomescan method relative to control.
The subject of data set [21] is MDA-MB-231. Description: Induction of G1 cell cycle arrest in human MDA-MB-231 cells at 100 nM after 24 to 48 hrs. Conditions: time 24-48 hrs. Type of data set: functional, cell-based.
The target in data set [22] is EML4-ALK (Homo sapiens) (UniProt Q9UM73+Q9HC35). Nature of the data set: Induction of EML4-ALK degradation in human […] at 0.1 to 50 nM by Western blot analysis. Type of data set: cell-based. Conditions: dose 0.1-50 nM.
The test system of data set [23] is Receptor-type tyrosine-protein kinase FLT3 (Homo sapiens), P36888 [UNDEFINED MUTATION]. Description: Binding affinity to human partial length FLT3 ITD mutant expressed in bacterial expression system assessed as residual binding level at 100 nM by Kinomescan method relative to control.
For data set [24] the test system is unchanged. Description: Binding affinity to human partial length FLT3 ITD/D835V double mutant expressed in bacterial expression system assessed as residual binding level at 100 nM by Kinomescan method relative to control.

Protein-tyrosine kinase 2-beta (Homo sapiens), sequence (Q14289 whole entry, looked up, the tested form may be a part): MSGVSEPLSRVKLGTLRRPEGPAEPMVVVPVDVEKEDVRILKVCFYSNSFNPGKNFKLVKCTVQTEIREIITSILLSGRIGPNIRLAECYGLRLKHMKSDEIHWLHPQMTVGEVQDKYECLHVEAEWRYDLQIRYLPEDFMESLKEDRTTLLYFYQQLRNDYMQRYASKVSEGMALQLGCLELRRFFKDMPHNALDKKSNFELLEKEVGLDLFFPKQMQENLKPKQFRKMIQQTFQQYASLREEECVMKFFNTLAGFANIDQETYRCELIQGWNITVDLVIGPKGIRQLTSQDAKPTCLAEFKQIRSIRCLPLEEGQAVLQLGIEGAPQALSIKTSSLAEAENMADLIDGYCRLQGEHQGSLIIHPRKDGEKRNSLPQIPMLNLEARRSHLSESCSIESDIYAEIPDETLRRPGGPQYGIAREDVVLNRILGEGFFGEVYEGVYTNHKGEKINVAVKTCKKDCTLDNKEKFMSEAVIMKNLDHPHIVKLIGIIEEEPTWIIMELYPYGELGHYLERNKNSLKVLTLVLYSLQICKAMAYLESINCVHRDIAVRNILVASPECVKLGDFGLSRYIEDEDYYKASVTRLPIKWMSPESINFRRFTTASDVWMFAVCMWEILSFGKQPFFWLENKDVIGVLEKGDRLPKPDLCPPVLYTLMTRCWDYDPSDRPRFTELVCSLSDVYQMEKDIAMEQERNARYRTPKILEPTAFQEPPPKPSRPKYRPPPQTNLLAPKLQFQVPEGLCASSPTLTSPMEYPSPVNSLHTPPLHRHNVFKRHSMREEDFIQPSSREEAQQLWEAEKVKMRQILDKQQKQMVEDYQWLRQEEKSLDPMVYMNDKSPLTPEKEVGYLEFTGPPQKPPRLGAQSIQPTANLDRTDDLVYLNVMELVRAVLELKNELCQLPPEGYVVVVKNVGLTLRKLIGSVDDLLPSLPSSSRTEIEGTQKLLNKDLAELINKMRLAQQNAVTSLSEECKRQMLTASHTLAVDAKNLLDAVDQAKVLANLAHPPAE
Leucine-rich repeat serine/threonine-protein kinase 2 (Homo sapiens), sequence (Q5S007 whole entry, the tested form may be a part): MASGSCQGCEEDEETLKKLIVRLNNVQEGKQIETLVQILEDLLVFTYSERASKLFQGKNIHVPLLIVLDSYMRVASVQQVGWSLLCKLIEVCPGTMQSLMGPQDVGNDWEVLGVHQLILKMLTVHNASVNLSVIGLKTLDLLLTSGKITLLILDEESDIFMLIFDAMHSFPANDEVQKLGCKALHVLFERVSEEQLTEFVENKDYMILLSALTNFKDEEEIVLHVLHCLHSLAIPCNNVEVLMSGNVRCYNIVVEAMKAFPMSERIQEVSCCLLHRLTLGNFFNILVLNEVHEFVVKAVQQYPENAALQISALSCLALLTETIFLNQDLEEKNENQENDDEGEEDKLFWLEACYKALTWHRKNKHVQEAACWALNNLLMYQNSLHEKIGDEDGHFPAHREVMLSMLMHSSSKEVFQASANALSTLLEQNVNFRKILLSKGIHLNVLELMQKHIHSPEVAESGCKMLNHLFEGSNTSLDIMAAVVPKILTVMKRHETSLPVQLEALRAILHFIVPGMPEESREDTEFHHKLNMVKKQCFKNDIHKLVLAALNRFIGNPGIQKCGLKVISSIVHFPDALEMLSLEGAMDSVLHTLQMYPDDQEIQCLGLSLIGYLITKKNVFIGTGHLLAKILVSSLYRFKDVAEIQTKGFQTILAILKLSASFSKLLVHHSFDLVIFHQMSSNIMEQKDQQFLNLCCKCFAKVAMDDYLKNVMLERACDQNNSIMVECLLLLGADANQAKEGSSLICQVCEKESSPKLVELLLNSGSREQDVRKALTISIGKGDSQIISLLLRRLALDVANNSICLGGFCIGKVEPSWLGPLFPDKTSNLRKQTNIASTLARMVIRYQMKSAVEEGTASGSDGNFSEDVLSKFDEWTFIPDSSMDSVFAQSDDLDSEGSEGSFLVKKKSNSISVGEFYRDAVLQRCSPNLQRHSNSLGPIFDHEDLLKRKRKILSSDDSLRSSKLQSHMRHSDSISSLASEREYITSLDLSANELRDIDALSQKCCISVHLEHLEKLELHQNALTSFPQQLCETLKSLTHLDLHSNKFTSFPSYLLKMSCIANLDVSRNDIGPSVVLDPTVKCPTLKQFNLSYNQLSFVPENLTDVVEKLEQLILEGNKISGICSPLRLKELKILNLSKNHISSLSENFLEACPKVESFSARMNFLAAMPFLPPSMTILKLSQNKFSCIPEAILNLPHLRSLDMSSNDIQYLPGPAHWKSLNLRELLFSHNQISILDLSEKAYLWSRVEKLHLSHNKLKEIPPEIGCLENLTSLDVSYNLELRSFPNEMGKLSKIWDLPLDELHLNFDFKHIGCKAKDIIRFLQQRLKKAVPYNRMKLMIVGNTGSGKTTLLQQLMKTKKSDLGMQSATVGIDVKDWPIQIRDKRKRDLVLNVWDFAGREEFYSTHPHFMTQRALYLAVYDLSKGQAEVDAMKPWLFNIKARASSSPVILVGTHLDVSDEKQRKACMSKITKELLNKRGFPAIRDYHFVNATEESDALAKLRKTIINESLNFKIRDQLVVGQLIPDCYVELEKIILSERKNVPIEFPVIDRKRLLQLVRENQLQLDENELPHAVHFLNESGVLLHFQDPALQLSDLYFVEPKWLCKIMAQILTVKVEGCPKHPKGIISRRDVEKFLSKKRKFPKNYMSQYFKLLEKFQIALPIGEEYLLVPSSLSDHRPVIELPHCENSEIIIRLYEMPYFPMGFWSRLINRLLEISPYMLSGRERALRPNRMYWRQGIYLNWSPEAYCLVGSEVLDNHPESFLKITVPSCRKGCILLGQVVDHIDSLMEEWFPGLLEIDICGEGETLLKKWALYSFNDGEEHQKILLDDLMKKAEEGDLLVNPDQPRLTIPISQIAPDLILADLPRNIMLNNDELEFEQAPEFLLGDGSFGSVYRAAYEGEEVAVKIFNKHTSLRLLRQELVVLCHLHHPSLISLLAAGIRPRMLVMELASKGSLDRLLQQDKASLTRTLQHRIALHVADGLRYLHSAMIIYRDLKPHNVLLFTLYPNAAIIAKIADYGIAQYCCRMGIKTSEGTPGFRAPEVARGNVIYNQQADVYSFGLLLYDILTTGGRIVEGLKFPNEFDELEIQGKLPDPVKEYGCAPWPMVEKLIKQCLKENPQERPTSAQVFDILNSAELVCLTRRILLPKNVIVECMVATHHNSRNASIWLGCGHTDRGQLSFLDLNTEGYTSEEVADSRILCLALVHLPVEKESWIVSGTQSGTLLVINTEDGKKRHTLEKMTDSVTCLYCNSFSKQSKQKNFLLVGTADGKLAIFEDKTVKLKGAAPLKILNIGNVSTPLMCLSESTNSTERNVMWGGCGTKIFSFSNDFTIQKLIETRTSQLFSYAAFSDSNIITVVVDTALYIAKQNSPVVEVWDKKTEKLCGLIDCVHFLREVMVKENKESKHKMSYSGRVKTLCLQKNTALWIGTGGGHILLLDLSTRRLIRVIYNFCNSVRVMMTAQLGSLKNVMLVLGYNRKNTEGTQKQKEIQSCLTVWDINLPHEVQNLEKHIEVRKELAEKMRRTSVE

Take `COc1cc(N2CCC(N3CCN(C(=O)CNc4cccc5c4C(=O)N(C4CCC(=O)NC4=O)C5=O)CC3)CC2)ccc1Nc1ncc(Cl)c(Nc2ccccc2P(C)(C)=O)n1` (centres undefined): the result in data set [1], in [2], in data set [3], in [5], in data set [7] and in data set [10] was Active. For the same molecule, the result in [13], in data set [21] and in data set [22] was Active. In addition, the Activity was 0% in [4]; “Non-Toxic” in [8]; 4.3% in data set [11]; 0% in data set [12]; 3.5% in [15]; 3.9% in data set [16]. The Activity in [17] amounted to 5.7%; in data set [20], 3.5%; in data set [23] it was 3%; in data set [24] it was 1%. Besides, the concentration for half-maximal inhibition (IC50) in data set [6] came to 2 nM; in [18] it was 2.5 nM. Moreover, the bioavailability in data set [9] was 18.4%. In addition, the outcome in data set [14] was inactive. In addition, the inhibition entry in [19] is “Active”.
